US20100130620A1, “NOVEL USE OF HYDROXYTYROSOL AND OLIVE EXTRACTS/CONCENTRATES CONTAINING IT” (priority 2007, published 2010)

Assays:
human ARPE-19 cells = assay type: cell-based
Experimental: (§1) The human ARPE-19 cells (a human retinal pigment epithelial cell-line) were maintained in DMEM-F12 medium (Dulbecco's modified Eagle's medium) supplemented with 10% fetal bovine serum, 0.348% sodium bicarbonate, 2 mM L-glutamine, 100 U/mL penicillin and 100 μg/ml streptomycin. Cell cultures were maintained at 37° C. in a humidified atmosphere of 95% air and 5% CO2. The medium was changed every 3 to 4 days. ARPE-19 cells were used within 10 generations.
(§2) All experiments were performed with an 80% confluence monolayer grown in 96-well plates or 6 well plates. Hydroxytyrosol (HTS) was dissolved in DMSO (dimethyl sulfoxide). Acrolein was dissolved in PBS (phosphate buffer salt) each time immediately before an experiment. For the acute toxicity study, cells were exposed to acrolein for 24 hours. The protective effects of HTS (Hydroxytyrosol) were studied with the acute toxicity model by pre-treating cells with HTS for 48 hours or for 7 days.
The MTT assay reduction assay was used as a […] index of cell viability. The optical densities were read at 555 nm using a microplate spectrophotometer (Spectra Max 340, Molecular Dabices, Sunnyvale, Calif.). Absorbance values were normalized with untreated cells to calculate the changes in cell viability.
The ARPE-19 cells were seeded at 4×10^4 per well in a 96 well plate. […]

ARPE-19 cells = assay: JC-1 assay for mitochondrial membrane potential; assay type: cell-based, human; conditions: 10-100 μM HTS, no acrolein
Experimental: as §1
as §2, with “The protective effects of HTS (Hydroxytyrosol) were studied with the acute toxicity model by pre-treating cells with HTS for 48 hours or for 7 days.” left out
Mitochondrial potential change (ΔΨ) was assessed in live APRE-19 cells using the lipophilic cationic probe 5,5′,6,6′-tetrachloro-1,1′,3,3′-tetraethylbenzimidazol-carbocyanine iodine (JC-1). For quantitative fluorescence measurement, cells were rinsed once after JC-1 staining and scanned with a multi-label counter (Wallac 1420; PerkinElmer Life Sciences, Wellesley, Mass.) at 485 nm excitation and 535 nm and 590 nm emission, to measure green and red JC-1 fluorescence respectively. […]

OCCc1ccc(O)c(O)c1 [HTS, 3,4-dihydroxyphenyl ethanol]
effect of HTS itself on cell viability (human ARPE-19 cells; 10-100 μM HTS, ARPE-19, no acrolein, FIG. 1): no apparent effect on cell viability
HTS concentration range protecting against acute acrolein-induced decrease in cell viability (human ARPE-19 cells; pretreatment, 75 μM acrolein 24 hours): 10 to 20 µM
effect of HTS itself on mitochondrial membrane potential (ARPE-19 cells): no apparent effect on mitochondrial membrane potential
